Here are results for 30 compounds from patent US9018388B2, “Pesticidal compositions and processes related thereto” (Dow AgroSciences LLC, priority 2012, dated 2015).

The subject of data set [1] is Green Peach Aphid (GPA) (Myzus persicae). The data set is described as follows: Bioassay on green peach aphid (GPA), foliar spray on cabbage seedlings. The class given is in vivo. As to conditions: 72 h, read-out: % Mortality GPA 200 ppm. The method, then: Bioassays on Green Peach Aphid (“GPA”) (Myzus persicae)
Certain molecules disclosed in this document were tested against GPA using procedures described in the following example. In the reporting of the results, the “GPA Rating Table” was used (See Table Section).
Cabbage seedlings grown in 3-inch pots, with 2-3 small (3-5 cm) true leaves, were used as test substrate. The seedlings were infested with 20-50 GPA (wingless adult and nymph stages) one day prior to chemical application. Four pots with individual seedlings were used for each treatment. Test compounds (2 mg) were dissolved in 2 mL of acetone/methanol (1:1) solvent, forming stock solutions of 1000 ppm test compound. The stock solutions were diluted 5× with 0.025% Tween 20 in H2O to obtain the solution at 200 ppm test compound. A hand-held aspirator-type sprayer was used for spraying a solution to both sides of […] leaves until runoff. Reference plants (solvent check) were sprayed with the diluent only containing 20% by volume of acetone/methanol (1:1) solvent. Treated plants were held in a holding room for three days at approximately 25° C. and ambient relative humidity (RH) prior to grading. Evaluation was conducted by counting the number of live aphids per plant under a microscope. Percent Control was measured by using Abbott's correction formula (W. S. Abbott, “A Method of Computing the Effectiveness of an Insecticide” J. Econ. Entomol. 18 (1925), pp. 265-267) as follows. Corrected%Control=100*(X−Y)/X • where • X=No. of live aphids on solvent check plants and • Y=No. of live aphids on treated plants
The results are indicated in the table entitled “Table 5: Biological Results” (See Table Section).

Data set [2] relates to Beet Armyworm (BAW) (Spodoptera exigua). The experiment in a line: Bioassay on beet armyworm (BAW), 128-well diet tray assay. The class given is in vivo. As to conditions: Spodoptera exigua; Beet armyworm, 50 μg/cm^2; read-out: % Mortality BAW 50 μg/cm^2. An outline of the steps:
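Second-instar Spodoptera exigua larvae, one to five per well, on artificial diet treated with 50 μg/cm^2 compound in 90:10 acetone-water and dried, eight wells per compound. Held at 25 °C, 14:10 light-dark for five to seven days; percent mortality averaged over wells.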

The test system of data set [3] is Corn Earworm (CEW) (Helicoverpa zea). The experiment in a line: Bioassay on corn earworm (CEW), 128-well diet tray assay. The class given is in vivo. As to conditions: Helicoverpa zea; Corn earworm, 50 μg/cm^2; read-out: % Mortality CEW 50 μg/cm^2. The procedure, abridged: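 Second-instar Helicoverpa zea larvae (one to five per well) placed on artificial diet treated with 50 μg/cm^2 compound in 90:10 acetone-water, dried, eight wells per compound. Held at 25 °C, 14:10 light-dark, five to seven days; percent mortality averaged over wells.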

As for `CC(C)c1ccccc1N1CCS/C1=N\N=C\c1ccc(-c2ncn(-c3ccc(OC(F)(F)F)cc3)n2)cc1` [Compound 132C], the pest or weed control at 200 ppm in data set [1] fell in the range of 0 to 80%. Further, the pest or weed control at 50 µg/cm2, 50 µg/cm2 in data set [2] and in data set [3] was 50 to 100% throughout.

With `CCc1ccccc1N1CCS/C1=N\N=C\c1ccc(-c2ncn(-c3ccc(OC(F)(F)F)cc3)n2)cc1` [Compound 133C], the pest or weed control at 200 ppm in data set [1] was 0 to 80%. Besides, the pest or weed control at 50 µg/cm2, 50 µg/cm2 in data set [2] and in data set [3] was 50 to 100% each time.

On to `COc1cc(C)c(N2CCS/C2=N\N=C\c2ccc(-c3ncn(-c4ccc(OC(F)(F)F)cc4)n3)cc2)c(C)c1` [Compound 138C], for which the pest or weed control at 200 ppm in data set [1] was in the range of 0 to 80%. For the same compound, the pest or weed control at 50 µg/cm2, 50 µg/cm2 in data set [2] and in data set [3] was 50 to 100% in each case.

As to `Cc1cc(C)c(N2CCS/C2=N\N=C\c2ccc(-c3ncn(-c4ccc(OC(F)(F)F)cc4)n3)cc2)c(C)c1` [Compound 139C], in data set [1], the pest or weed control at 200 ppm fell in the range of 0 to 80%. In addition, the pest or weed control at 50 µg/cm2, 50 µg/cm2 in data set [2] and in data set [3] was 50 to 100% in each case.

In the case of `COc1ccccc1N1CCS/C1=N\N=C\c1ccc(-c2ncn(-c3ccc(OC(F)(F)F)cc3)n2)cc1` [Compound 140C], the pest or weed control at 200 ppm in data set [1] fell in the range of 0 to 80%. The pest or weed control at 50 µg/cm2, 50 µg/cm2 in data set [2] and in data set [3] was 50 to 100% in each case.

As to `FC(F)(F)Oc1ccc(-n2cnc(-c3ccc(/C=N/N=C4\SCCN4c4ccccc4C4CC4)cc3)n2)cc1` [Compound 145C], the pest or weed control at 200 ppm in data set [1] lay within 0 to 80%. Besides, the pest or weed control at 50 µg/cm2, 50 µg/cm2 in data set [2] and in data set [3] was 50 to 100% each time.

On to `CCOc1ccccc1N1CCS/C1=N\N=C\c1ccc(-c2ncn(-c3ccc(OC(F)(F)F)cc3)n2)cc1` [Compound 146C], for which the pest or weed control at 200 ppm in data set [1] was in the range of 0 to 80%. Also, the pest or weed control at 50 µg/cm2, 50 µg/cm2 in data set [2] and in data set [3] was 50 to 100% in each case.

On to `COc1cccc(N2CCS/C2=N\N=C\c2ccc(-c3ncn(-c4ccc(OC(F)(F)F)cc4)n3)cc2)c1` [Compound 147C], for which the pest or weed control at 200 ppm in data set [1] lay within 0 to 80%. The pest or weed control at 50 µg/cm2, 50 µg/cm2 in data set [2] and in data set [3] was 50 to 100% throughout.

In the case of `CC(C)=Cc1ccccc1N1CCS/C1=N\N=C\c1ccc(-c2ncn(-c3ccc(OC(F)(F)F)cc3)n2)cc1` [Compound 151C], the pest or weed control at 200 ppm in data set [1] is 0 to 80%. The pest or weed control at 50 µg/cm2, 50 µg/cm2 in data set [2] and in data set [3] was 50 to 100% each time.

With `Cc1ccccc1N1/C(=N/N=C/c2ccc(-c3ncn(-c4ccc(OC(F)(F)F)cc4)n3)cc2)SCC1C` (stereo not shown) [Compound 154C], the pest or weed control at 200 ppm in data set [1] was in the range of 0 to 80%. Further, the pest or weed control at 50 µg/cm2, 50 µg/cm2 in data set [2] and in data set [3] was 50 to 100% each time.

Regarding `CCc1cccc(C)c1N1/C(=N/N=C/c2ccc(-c3ncn(-c4ccc(OC(F)(F)F)cc4)n3)cc2)SCC1C` (stereo not shown) [Compound 156C], the pest or weed control at 200 ppm in data set [1] was 0 to 80%. In addition, the pest or weed control at 50 µg/cm2, 50 µg/cm2 in data set [2] and in data set [3] was 50 to 100% throughout.

As to `CC1CS/C(=N\N=C\c2ccc(-c3ncn(-c4ccc(OC(F)(F)F)cc4)n3)cc2)N1c1c(Cl)cccc1Cl` (stereo not shown) [Compound 157C], the pest or weed control at 200 ppm in data set [1] lay within 0 to 80%. The pest or weed control at 50 µg/cm2, 50 µg/cm2 in data set [2] and in data set [3] was 50 to 100% each time.

For `Cc1cccc(Cl)c1N1/C(=N/N=C/c2ccc(-c3ncn(-c4ccc(OC(F)(F)F)cc4)n3)cc2)SCC1C` (stereo not shown) [Compound 158C], in data set [1], the pest or weed control at 200 ppm is 0 to 80%. Besides, the pest or weed control at 50 µg/cm2, 50 µg/cm2 in data set [2] and in data set [3] was 50 to 100% each time.

As for `Cc1cccc(Cl)c1-n1c(C)cs/c1=N\N=C\c1ccc(-c2ncn(-c3ccc(OC(F)(F)F)cc3)n2)cc1` [Compound 174C], the pest or weed control at 200 ppm in data set [1] was 0 to 80%. For the same compound, the pest or weed control at 50 µg/cm2, 50 µg/cm2 in data set [2] and in data set [3] was 50 to 100% in each case.

Take `COc1cc(C)c(N2CCCS/C2=N\N=C\c2ccc(-c3ncn(-c4ccc(OC(F)(F)F)cc4)n3)cc2)c(C)c1` [Compound 181C]: the pest or weed control at 200 ppm in data set [1] is 0 to 80%. Moreover, the pest or weed control at 50 µg/cm2, 50 µg/cm2 in data set [2] and in data set [3] was 50 to 100% throughout.

On to `Cc1cccc(C)c1N1CCCS/C1=N\N=C\c1ccc(-c2ncn(-c3ccc(OC(F)(F)F)cc3)n2)cc1` [Compound 182C], for which, in data set [1], the pest or weed control at 200 ppm lay within 0 to 80%. Also, the pest or weed control at 50 µg/cm2, 50 µg/cm2 in data set [2] and in data set [3] was 50 to 100% each time.

As for `FC(F)(F)Oc1ccc(-n2cnc(-c3ccc(/C=N/N=C4\SCCCN4c4ccccc4C4CC4)cc3)n2)cc1` [Compound 186C], the pest or weed control at 200 ppm in data set [1] fell in the range of 0 to 80%. In addition, the pest or weed control at 50 µg/cm2, 50 µg/cm2 in data set [2] and in data set [3] was 50 to 100% in each case.

Turning to `Fc1cccc(Cl)c1N1CCCS/C1=N\N=C\c1ccc(-c2ncn(-c3ccc(OC(F)(F)F)cc3)n2)cc1` [Compound 188C], the pest or weed control at 200 ppm in data set [1] was in the range of 0 to 80%. The pest or weed control at 50 µg/cm2, 50 µg/cm2 in data set [2] and in data set [3] was 50 to 100% each time.

For `Fc1cccc(F)c1N1CCCS/C1=N\N=C\c1ccc(-c2ncn(-c3ccc(OC(F)(F)F)cc3)n2)cc1` [Compound 189C], the pest or weed control at 200 ppm in data set [1] lay in the range of 0 to 80%. Also, the pest or weed control at 50 µg/cm2, 50 µg/cm2 in data set [2] and in data set [3] was 50 to 100% throughout.

As for `FC(F)(F)Oc1ccc(-n2cnc(-c3ccc(/C=N/N=C4\SCCCN4c4c(Cl)cccc4C(F)(F)F)cc3)n2)cc1` [Compound 190C], in data set [1], the pest or weed control at 200 ppm lay within 0 to 80%. Besides, the pest or weed control at 50 µg/cm2, 50 µg/cm2 in data set [2] and in data set [3] was 50 to 100% in each case.

For the compound `COc1ccc(N2CCCS/C2=N\N=C\c2ccc(-c3ncn(-c4ccc(OC(F)(F)F)cc4)n3)cc2)c(C)c1` [Compound 192C], in data set [1], the pest or weed control at 200 ppm was in the range of 0 to 80%. In addition, the pest or weed control at 50 µg/cm2, 50 µg/cm2 in data set [2] and in data set [3] was 50 to 100% in each case.

As to `CC(C)Cc1ccccc1N1CCCS/C1=N\N=C\c1ccc(-c2ncn(-c3ccc(OC(F)(F)F)cc3)n2)cc1` [Compound 193C], the pest or weed control at 200 ppm in data set [1] was 0 to 80%. Also, the pest or weed control at 50 µg/cm2, 50 µg/cm2 in data set [2] and in data set [3] was 50 to 100% throughout.

For `FC(F)(F)Oc1ccc(-n2cnc(-c3ccc(/C=N/N=C4\SCCCN4c4ccccc4-c4ccccc4)cc3)n2)cc1` [Compound 194C], in data set [1], the pest or weed control at 200 ppm was 0 to 80%. In addition, the pest or weed control at 50 µg/cm2, 50 µg/cm2 in data set [2] and in data set [3] was 50 to 100% throughout.

`Cc1ccccc1N1CCCS/C1=N\N=C\c1ccc(-c2ncn(-c3ccc(OC(F)(F)F)cc3)n2)cc1` [Compound 195C]: the pest or weed control at 200 ppm in data set [1] fell in the range of 0 to 80%. For the same compound, the pest or weed control at 50 µg/cm2, 50 µg/cm2 in data set [2] and in data set [3] was 50 to 100% each time.

Turning to `COc1ccc(N2CCCS/C2=N\N=C\c2ccc(-c3ncn(-c4ccc(OC(F)(F)F)cc4)n3)cc2)cc1` [Compound 202C], in data set [1], the pest or weed control at 200 ppm was in the range of 0 to 80%. For the same compound, the pest or weed control at 50 µg/cm2, 50 µg/cm2 in data set [2] and in data set [3] was 50 to 100% throughout.

For `Cc1cc(Br)cc(C)c1N1CCCS/C1=N\N=C\c1ccc(-c2ncn(-c3ccc(OC(F)(F)F)cc3)n2)cc1` [Compound 203C], the pest or weed control at 200 ppm in data set [1] is 0 to 80%. In addition, the pest or weed control at 50 µg/cm2, 50 µg/cm2 in data set [2] and in data set [3] was 50 to 100% in each case.

As for `COc1ccc(C)cc1N1CCCS/C1=N\N=C\c1ccc(-c2ncn(-c3ccc(OC(F)(F)F)cc3)n2)cc1` [Compound 204C], the pest or weed control at 200 ppm in data set [1] fell in the range of 0 to 80%. Moreover, the pest or weed control at 50 µg/cm2, 50 µg/cm2 in data set [2] and in data set [3] was 50 to 100% in each case.

In the case of `Cc1ncccc1N1CCCS/C1=N\N=C\c1ccc(-c2ncn(-c3ccc(OC(F)(F)F)cc3)n2)cc1` [Compound 205C], the pest or weed control at 200 ppm in data set [1] is 0 to 80%. Also, the pest or weed control at 50 µg/cm2, 50 µg/cm2 in data set [2] and in data set [3] was 50 to 100% throughout.

In the case of `CCc1cccc(C)c1N1/C(=N/N=C/c2ccc(-c3ncn(-c4ccc(OC(F)(F)F)cc4)n3)cc2)SCCC1C` (stereo not shown) [Compound 213C], the pest or weed control at 200 ppm in data set [1] lay within 0 to 80%. For the same compound, the pest or weed control at 50 µg/cm2, 50 µg/cm2 in data set [2] and in data set [3] was 50 to 100% each time.

For orientation: melting point means the temperature of the solid-liquid transition. Turning to `CC(C)c1ccccc1NC(=S)N/N=C/c1ccc(-c2ncn(-c3ccc(OC(F)(F)C(F)(F)F)cc3)n2)cc1` [Compound I-33], the melting point was in the range of 214 to 216 °C.
